Drawing on ChEMBL document CHEMBL1201862, “PubChem BioAssay data set” (2004), this text covers AC50, IC50 and IC90 for eight molecules.

Molecules are shown by their SMILES. Counter-ions that a name gives are not always drawn. Activity calls are given as the source filed them. Where only a bound is given, the exact number is not on record here.

Experiment [1] has as its system HEK293. Briefly: HEK293T cell cytotoxicity, dose response, cytotoxicity control, ATP luminescence, cherry-pick samples (AID 687005).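 Also: cells exposed to compound for 48 hours.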 It counts as functional, cell-based. To be noted: Homo sapiens.
Experiment [2] can be described thus: HEK293 Cytotoxicity Assay Measured in Cell-Based System Using Plate Reader - 7071-01_Inhibitor_Dose_CherryPick_Activity_Set2. It counts as functional.
In experiment [3] the target is NAD-dependent protein deacylase sirtuin-5, mitochondrial (Homo sapiens, UniProt Q9NXA8). Briefly: SIRT5 deacylase inhibitors, dose response, biochemical, fluorescence imaging, cherry-pick, set 6 (AID 720597).
The target in experiment [4] is T1, Fibrinogen beta chain (Homo sapiens, UniProt P02675). The experiment can be described thus: Fluorescence polarization-based biochemical high throughput dose response assay to identify inhibitors that disrupt the binding of a cyclic peptide (Tn7) to the fibrin proteolytic product D-Dimer and fragment E complex [DD(E )].
Experiment [5] deals with T1, Fibrinogen beta chain. The experiment can be described thus: Fluorescence polarization-based biochemical high throughput dose response assay to identify inhibitors that disrupt the binding of a cyclic peptide (Tn6) to the fibrin proteolytic product D-Dimer and fragment E complex [DD(E )].
Experiment [6] is described as follows: Late stage assay provider results from the probe development effort to identify inhibitors of the Plasmodium falciparum M18 Aspartyl Aminopeptidase (M18AAP): radiolabel-based cell-based dose response assay to identify compounds that inhibit P. falciparum growth in RBCs, Set 2.. It counts as functional.
A short description of experiment [7]: A Cell-Based Confirmatory Screen for Compounds that Inhibit VEEV, TC-83 (5). It is filed as functional.
Experiment [8] is described as follows: growth inhibition of replicating M. tuberculosis, dose response, counter-screen, dry powder, IC90 (AID 651617). It counts as functional. The following applies: Mycobacterium tuberculosis.
Experiment [9] is described as follows: inhibitors of non-replicating M. tuberculosis, dose response, luciferase, dry powder (AID 651620). It counts as functional. To be noted: Mycobacterium tuberculosis.
Experiment [10] is described as follows: inhibitors of non-replicating M. tuberculosis, dose response, luciferase, dry powder (AID 651619). It is filed as functional. To be noted: Mycobacterium tuberculosis.
Experiment [11] addresses RNA-editing ligase 1, mitochondrial (Trypanosoma brucei brucei, UniProt P86926). The experiment can be described thus: TbREL1 ligase inhibitors, dose response, biochemical, fluorescence, Trypanosoma brucei (AID 1117295). It is filed as functional.
The nature of experiment [12]: HeLa 4N DNA content increase, dose response, cell-based, IC50 (AID 1117351). It counts as functional.
Experiment [13] can be described thus: Dose-response inhibition of insulin secretion in a rat insulinoma line at 5 mM glucose (AID 1117331). The following applies: INS-1E. It counts as functional, cell-based.
Experiment [14] is described as follows: cells. It counts as functional, cell-based. To be noted: INS-1E.
Experiment [15] in a line: HeLa 2N DNA content increase, dose response, cell-based, IC50 (AID 1117349). It is filed as functional.

T1 sequence (P02675 whole entry, the tested form may be a part): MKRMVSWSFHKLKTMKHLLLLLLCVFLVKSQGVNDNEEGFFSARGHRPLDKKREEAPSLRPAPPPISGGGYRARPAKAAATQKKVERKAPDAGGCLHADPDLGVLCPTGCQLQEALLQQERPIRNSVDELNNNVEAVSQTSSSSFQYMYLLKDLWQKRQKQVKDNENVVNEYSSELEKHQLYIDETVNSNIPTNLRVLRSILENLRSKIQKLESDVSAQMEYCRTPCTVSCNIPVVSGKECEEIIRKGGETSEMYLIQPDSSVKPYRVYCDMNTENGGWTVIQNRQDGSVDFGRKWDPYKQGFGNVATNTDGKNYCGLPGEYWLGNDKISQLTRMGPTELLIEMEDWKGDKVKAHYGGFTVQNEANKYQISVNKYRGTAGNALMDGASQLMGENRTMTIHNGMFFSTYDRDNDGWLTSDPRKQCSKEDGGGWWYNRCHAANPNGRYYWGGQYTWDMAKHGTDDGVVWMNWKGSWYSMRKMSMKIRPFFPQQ
NAD-dependent protein deacylase sirtuin-5, mitochondrial, sequence (Q9NXA8 whole entry, the tested form may be a part): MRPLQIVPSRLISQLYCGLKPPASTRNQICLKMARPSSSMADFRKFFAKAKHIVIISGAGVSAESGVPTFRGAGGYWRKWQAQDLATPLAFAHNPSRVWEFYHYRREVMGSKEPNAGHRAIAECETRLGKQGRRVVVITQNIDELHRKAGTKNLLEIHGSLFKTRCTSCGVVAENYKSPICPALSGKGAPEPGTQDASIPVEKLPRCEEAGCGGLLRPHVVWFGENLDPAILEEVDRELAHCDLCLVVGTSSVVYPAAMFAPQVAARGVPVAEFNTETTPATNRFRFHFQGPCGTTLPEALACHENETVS
RNA-editing ligase 1, mitochondrial, sequence (P86926 whole entry): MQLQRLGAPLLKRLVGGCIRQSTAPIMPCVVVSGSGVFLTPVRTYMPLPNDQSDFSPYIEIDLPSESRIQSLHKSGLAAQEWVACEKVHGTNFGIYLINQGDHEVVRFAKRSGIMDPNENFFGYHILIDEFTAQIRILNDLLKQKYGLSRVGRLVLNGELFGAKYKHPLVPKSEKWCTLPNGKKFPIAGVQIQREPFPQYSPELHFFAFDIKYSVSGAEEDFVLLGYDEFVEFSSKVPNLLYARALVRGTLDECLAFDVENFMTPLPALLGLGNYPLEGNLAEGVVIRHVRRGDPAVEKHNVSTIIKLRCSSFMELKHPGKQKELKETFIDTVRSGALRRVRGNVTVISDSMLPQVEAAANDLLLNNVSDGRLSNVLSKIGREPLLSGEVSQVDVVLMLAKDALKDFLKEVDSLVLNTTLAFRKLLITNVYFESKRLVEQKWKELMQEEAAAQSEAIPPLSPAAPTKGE

Consider `O=C(Nc1ccccc1)N1CCCCN2[C@H](C1)[C@H](c1ccc(C#CC3CC3)cc1)[C@@H]2CO`, for which the AC50 in experiment [1] and in experiment [2] was 40.1 µM (active) each time.

For `COc1ccc(S(=O)(=O)Nc2ccc3c(c2)C(=O)N([C@@H](C)CO)C[C@@H](C)[C@H](CN(C)S(=O)(=O)c2ccccc2)OCCCC[C@H](C)O3)cc1`, in [3], the AC50 is > 30 µM (inactive).

As to `CCOC(=O)C1=Nc2cccc3c(O)ccc1c23`, the results for the IC50 in experiment [4] and in experiment [5] were > 9.25 µM (active) and 22.3 µM (inactive), respectively.

In the case of `COc1cc(Br)c(CCNc2c3ccccc3nc3ccccc23)cc1OC`, the IC50 in [6] is 0.3 µM (active).

Regarding `CCN1CCN(Cc2nc3ccc(I)cc3c(=O)n2-c2ccccc2)CC1`, the IC50 in experiment [7] was 17.1 µM (active).

Take `Cc1ccc(-c2nnc(SCc3ccccn3)o2)cc1`: the IC90 is 62 µM (active) in [8], 4 µM (active) in experiment [9] and 4 µM (active) in experiment [10].

For `COC(=O)C1=C(C)N(Cc2ccccc2C(F)(F)F)C(NCc2ccc(OC)cc2)=NC1c1ccc(Cl)cc1` (stereo not given), the IC50 in experiment [11] was > 96.6 µM (inactive).

On to `CCN(CCCCOC(=O)c1ccc(OC)c(OC)c1)C(C)Cc1ccc(OC)cc1` (stereo not given) [MEBEVERINE HYDROCHLORIDE], for which the IC50 in [12] was > 10 µM (inactive); in experiment [13], 1.95 µM (active); in [14] it was > 33.3 µM (inactive); in experiment [15], > 10 µM (inactive).
